Where two headings read alike, the source gives them in different places.
Tests used:
[1] = molecular target: T1, porcine liver CaE (Sus scrofa, UniProt Q29550); test: In vitro CaE inhibition (4-nitrophenyl acetate hydrolysis); assay type: biochemical; conditions: for inhibition at 20 µM: 20 μM of compound
T1 sequence (Q29550 19-566): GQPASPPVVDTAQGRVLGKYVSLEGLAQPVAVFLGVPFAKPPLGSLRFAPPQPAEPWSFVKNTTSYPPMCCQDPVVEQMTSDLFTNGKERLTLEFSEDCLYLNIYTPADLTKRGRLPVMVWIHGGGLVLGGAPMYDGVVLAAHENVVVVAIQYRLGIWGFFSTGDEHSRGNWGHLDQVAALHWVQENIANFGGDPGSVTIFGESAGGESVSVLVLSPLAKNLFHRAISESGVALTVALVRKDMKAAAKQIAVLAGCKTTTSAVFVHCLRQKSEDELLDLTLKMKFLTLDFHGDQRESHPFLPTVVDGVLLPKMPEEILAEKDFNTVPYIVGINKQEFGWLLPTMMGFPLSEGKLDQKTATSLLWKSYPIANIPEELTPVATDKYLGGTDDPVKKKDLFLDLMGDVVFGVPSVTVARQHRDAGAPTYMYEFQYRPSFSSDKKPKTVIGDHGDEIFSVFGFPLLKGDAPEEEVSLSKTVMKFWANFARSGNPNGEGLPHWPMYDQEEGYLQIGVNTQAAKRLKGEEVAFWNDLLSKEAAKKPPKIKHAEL
Method: Acetylcholinesterase (AChE, EC 3.1.1.7, from human erythrocyte), butyrylcholinesterase (BChE, EC 3.1.1.8, from equine serum), carboxylesterase (CaE, EC 3.1.1.1, from porcine liver), acetylthiocholine iodide (ATCh), butylthiocholine iodide (BTCh), 5,5′-dithiobis-(2-nitrobenzoic acid) (DTNB), and 4-nitrophenol acetate (4-NPA), were purchased from Sigma-Aldrich (Germany).
The activity of CaE was determined spectrophotometrically by the release of 4-nitrophenol at 405 nm[76]. The assay solution consisted of 0.1 M K/Na phosphate buffer (pH 8.0, 25 °C) with the addition of 1 mM 4-nitrophenyl acetate and 0.02 unit/mL of CaE. The assays were carried out with a blank containing all components except CaE.
The test compounds were dissolved in DMSO; the incubation mixture contained 2% of the solvent. […] The test compounds were added to the assay solution and pre-incubated at 25 °C with the enzymes for 10 min followed by the addition of the substrate. A parallel control was made for the assay solution with no inhibitor. […] Each experiment was performed in triplicate. The results were expressed as the mean ± SEM. The reaction rates in the presence and absence of inhibitor were compared, and the percentage of residual enzyme activity due to the presence of test compounds was calculated.

[2] = molecular target: T2, tubulin (Sus scrofa, UniProt P02550+P02554); test: Tubulin polymerization to microtubules (absorbance at 355 nm); assay type: biochemical; conditions: read-out: (dA355/dt)max, % of control
T2 construct: purchased Cytoskeleton, Inc., Denver, USA
Method: The primary screening for the effect on tubulin polymerization in vitro was performed using a commercial tubulin in the presence of 0.1 mM of the carbazole–aminoadamantane conjugates. In blank probes, tubulin (40 μM) polymerization in the presence of 10% DMSO (as in the case of test probes) leads to absorbance increase after a rather long (80–120 minutes) lag period. […] The results are summarized in Table 3 as the maximum rate of absorbance increase for a tubulin- microtubules suspension normalized to the blank value.
The assembly of tubulin into microtubules was carried out using pure tubulin from HTS- Tubulin polymerization assay kit (Cytoskeleton, Inc., Denver, USA). […] The standard polymerization reaction contained 100 μl of a 4 mg/ml tubulin solution in 80 mM PIPES (pH 6.9), 0.5 mM EGTA, 2 mM MgCl2, and 1 mM GTP. […] The parameter Vmax = (dA355/dt)^max normalized to control probes (%) was used to compare the action of the compounds. Electron microscopic monitoring was carried out on Carl Zeiss Libra 120 Electron Microscope (Carl Zeiss Meditec AG, Jena, Germany) at 120 kV using negative countstaining.

[3] = molecular target: T3, ifenprodil binding site of NMDA receptors containing NR2B subunits (Rattus norvegicus, UniProt P35439+Q00960); test: Radioligand binding, competition with [3H]ifenprodil; conditions: rat hippocampal membranes
T3 construct: we used a membrane preparation of rat cerebral hippocampus; from tissue; host or cells: rat hippocampal membranes
Method: (§1) Two radioactive ligands were used: [^3H]
(§2) The obtained membrane pellet was resuspended in a work buffer (5 mM HEPES/4.5 mM Tris buffer, pH 7.6) in a ratio of 1:5 and stored in liquid nitrogen. The reaction mixture (the final volume of 0.5 ml) contained 200 μl of the working buffer, 50 μl of 50 nM radioligand solution, and 250 μl of the membrane suspension. Nonspecific binding was determined in the presence of 50 μl of 1 mM of unlabeled ligand.
(§3) For binding study, the reaction mixture was incubated at room temperature for 2 hours. After incubation, the samples were filtered through GF/B glass-fiber filters (Whatman), washed with the work buffer, dried, and transferred to scintillation vials to which 5 ml of scintillation fluid was added containing 4 g of diphenyloxazole (PPO), 0.2 g of diphenyloxazoil benzene (POPOP), and 1 liter of toluene.
(§4) The effect of the test compounds on the binding of [^3H]

[4] = molecular target: T4, equine serum BChE (Equus caballus, UniProt P81908); test: biochemical; conditions: for inhibition at 20 µM: read-out: inhibition % at 20 μM, BChE
T4 construct: We used human erythrocyte AChE, equine serum BChE, and porcine liver CaE; purchased Sigma-Aldrich (Germany); host or cells: equine serum
Method: (§5) The AChE and BChE activities were measured by the method of Ellman and co-workers as described earlier[75]. The assay solution consisted of 0.1 M K/Na phosphate buffer (pH 7.5, 25 °C) with the addition of 0.33 mM DTNB, 0.02 unit/mL of AChE or BChE, and 1 mM of substrate (ATCh or BTCh, respectively). The assays were carried out with a blank containing all components except ATCh and BTCh in order to take account of a non-enzymatic reaction.
(§6) The test compounds were dissolved in DMSO; the incubation mixture contained 2% of the solvent. […] The test compounds were added to the assay solution and pre-incubated at 25 °C with the enzymes for 10 min followed by the addition of the substrate. A parallel control was made for the assay solution with no inhibitor. Measurements were performed in a FLUOStar OPTIMA multifunctional reader (BMG Labtech, Germany). Each experiment was performed in triplicate. The results were expressed as the mean ± SEM. The reaction rates in the presence and absence of inhibitor were compared, and the percentage of residual enzyme activity due to the presence of test compounds was calculated.

[5] = molecular target: T5, MK-801 binding (intrachannel) site of NMDA receptor (Rattus norvegicus, UniProt P35439); test: Radioligand binding, competition with [3H]MK-801; conditions: rat hippocampal membranes
T5 construct: we used a membrane preparation of rat cerebral hippocampus; from tissue; host or cells: rat hippocampal membranes
Method: as §1, §2, §3, §4

[6] = molecular target: T6, human erythrocyte AChE (Homo sapiens, UniProt P22303); test: biochemical; conditions: for inhibition at 20 µM: read-out: inhibition % at 20 μM, AChE
T6 construct: We used human erythrocyte AChE, equine serum BChE, and porcine liver CaE; purchased Sigma-Aldrich (Germany); host or cells: human erythrocyte
Method: as §5, §6

[7] = test system: SH-SY5Y neuroblastoma cells; test: Ionomycin-induced toxicity in SH-SY5Y neuroblastoma cells (MTT test); assay type: cell-based, human; conditions: 3 μM ionomycin, 24 hours
Method: The human neuroblastoma cell line SH-SY5Y was used for all experiments. The cells were cultured in a humidified, 5% (v/v) CO2-controlled environment at 37 °C, and grown in MEM/F12 culture medium supplemented with 15% fetal bovine serum (FBS), 100 U/mL penicillin, and […][90].
The cell viability was evaluated as the dehydrogenase activity with the 3-(4,5-dimethylthiazol-2-yl)-2,5-diphenyltetrazolium bromide (MTT) assay. Briefly, the SH-SY5Y cells were incubated with 0.1 and 1 μM of a test compound or an equal volume of the vehicle (<1% of the whole volume of the medium under the layer of cells) and 3 μM ionomycine for 24 h. The absorbance was measured at 570 nm using a Victor microplate reader (Perkin Elmer).

[8] = equine serum BChE, pH 7.5, 25 °C, 10 min pre-incubation, read-out: IC50 ± SEM, BChE

T6 sequence (P22303 32-617 isoform P22303-2 limits assumed): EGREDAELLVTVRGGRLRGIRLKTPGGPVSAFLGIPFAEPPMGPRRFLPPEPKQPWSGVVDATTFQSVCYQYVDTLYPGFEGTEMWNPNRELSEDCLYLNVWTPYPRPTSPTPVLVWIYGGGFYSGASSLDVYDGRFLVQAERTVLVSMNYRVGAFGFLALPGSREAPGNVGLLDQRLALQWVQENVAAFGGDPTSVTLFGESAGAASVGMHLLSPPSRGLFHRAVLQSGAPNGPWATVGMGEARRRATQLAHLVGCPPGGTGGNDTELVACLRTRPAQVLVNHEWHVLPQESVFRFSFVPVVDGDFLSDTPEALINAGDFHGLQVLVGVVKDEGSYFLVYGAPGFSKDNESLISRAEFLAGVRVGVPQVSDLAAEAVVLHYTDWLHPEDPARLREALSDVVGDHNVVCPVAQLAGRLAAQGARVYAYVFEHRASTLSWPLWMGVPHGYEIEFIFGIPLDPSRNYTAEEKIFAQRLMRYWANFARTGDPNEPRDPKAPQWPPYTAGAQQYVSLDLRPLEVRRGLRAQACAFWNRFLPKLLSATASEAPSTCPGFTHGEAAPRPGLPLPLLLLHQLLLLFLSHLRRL
T4 sequence (P81908 whole entry): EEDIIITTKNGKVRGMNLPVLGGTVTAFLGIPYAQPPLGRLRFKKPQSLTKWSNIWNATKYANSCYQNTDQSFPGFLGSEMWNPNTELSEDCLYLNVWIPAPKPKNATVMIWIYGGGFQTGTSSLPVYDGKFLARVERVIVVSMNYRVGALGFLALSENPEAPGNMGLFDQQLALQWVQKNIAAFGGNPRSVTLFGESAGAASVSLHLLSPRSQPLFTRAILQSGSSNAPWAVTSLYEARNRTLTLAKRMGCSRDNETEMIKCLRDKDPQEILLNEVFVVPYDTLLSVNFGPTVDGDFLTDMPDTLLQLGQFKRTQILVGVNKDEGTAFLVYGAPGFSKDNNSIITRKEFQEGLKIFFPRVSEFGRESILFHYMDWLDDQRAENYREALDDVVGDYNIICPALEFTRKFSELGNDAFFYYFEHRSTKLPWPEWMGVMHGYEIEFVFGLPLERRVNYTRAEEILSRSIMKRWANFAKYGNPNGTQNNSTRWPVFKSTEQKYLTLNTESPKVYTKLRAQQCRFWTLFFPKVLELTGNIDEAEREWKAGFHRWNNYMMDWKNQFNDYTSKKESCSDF
T2 sequence (P02550 whole entry): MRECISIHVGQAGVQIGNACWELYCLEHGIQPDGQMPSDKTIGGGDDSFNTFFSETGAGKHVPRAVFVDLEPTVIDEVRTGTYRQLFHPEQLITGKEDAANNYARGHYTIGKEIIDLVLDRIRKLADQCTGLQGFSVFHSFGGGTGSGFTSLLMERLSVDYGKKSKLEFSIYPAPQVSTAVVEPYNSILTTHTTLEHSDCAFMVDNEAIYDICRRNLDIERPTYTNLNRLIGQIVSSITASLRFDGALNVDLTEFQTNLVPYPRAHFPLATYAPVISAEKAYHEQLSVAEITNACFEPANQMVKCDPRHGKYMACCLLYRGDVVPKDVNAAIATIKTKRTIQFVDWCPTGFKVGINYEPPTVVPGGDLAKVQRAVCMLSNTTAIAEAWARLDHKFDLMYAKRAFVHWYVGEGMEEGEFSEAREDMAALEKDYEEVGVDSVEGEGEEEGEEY
T2 sequence (P02554 whole entry): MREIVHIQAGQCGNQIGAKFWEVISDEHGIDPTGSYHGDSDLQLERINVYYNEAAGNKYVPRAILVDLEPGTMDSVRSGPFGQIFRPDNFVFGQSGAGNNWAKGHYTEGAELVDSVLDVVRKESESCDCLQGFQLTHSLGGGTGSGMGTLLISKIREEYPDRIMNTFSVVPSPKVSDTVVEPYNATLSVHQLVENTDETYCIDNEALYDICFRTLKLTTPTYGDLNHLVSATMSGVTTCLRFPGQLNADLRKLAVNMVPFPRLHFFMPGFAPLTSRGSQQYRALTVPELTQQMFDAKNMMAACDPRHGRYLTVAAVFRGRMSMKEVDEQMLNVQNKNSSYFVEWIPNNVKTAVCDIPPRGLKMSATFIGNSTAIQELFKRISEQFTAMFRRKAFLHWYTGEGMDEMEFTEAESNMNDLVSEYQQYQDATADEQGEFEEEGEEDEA
T3 sequence (Q00960 27-1482, other chains not shown): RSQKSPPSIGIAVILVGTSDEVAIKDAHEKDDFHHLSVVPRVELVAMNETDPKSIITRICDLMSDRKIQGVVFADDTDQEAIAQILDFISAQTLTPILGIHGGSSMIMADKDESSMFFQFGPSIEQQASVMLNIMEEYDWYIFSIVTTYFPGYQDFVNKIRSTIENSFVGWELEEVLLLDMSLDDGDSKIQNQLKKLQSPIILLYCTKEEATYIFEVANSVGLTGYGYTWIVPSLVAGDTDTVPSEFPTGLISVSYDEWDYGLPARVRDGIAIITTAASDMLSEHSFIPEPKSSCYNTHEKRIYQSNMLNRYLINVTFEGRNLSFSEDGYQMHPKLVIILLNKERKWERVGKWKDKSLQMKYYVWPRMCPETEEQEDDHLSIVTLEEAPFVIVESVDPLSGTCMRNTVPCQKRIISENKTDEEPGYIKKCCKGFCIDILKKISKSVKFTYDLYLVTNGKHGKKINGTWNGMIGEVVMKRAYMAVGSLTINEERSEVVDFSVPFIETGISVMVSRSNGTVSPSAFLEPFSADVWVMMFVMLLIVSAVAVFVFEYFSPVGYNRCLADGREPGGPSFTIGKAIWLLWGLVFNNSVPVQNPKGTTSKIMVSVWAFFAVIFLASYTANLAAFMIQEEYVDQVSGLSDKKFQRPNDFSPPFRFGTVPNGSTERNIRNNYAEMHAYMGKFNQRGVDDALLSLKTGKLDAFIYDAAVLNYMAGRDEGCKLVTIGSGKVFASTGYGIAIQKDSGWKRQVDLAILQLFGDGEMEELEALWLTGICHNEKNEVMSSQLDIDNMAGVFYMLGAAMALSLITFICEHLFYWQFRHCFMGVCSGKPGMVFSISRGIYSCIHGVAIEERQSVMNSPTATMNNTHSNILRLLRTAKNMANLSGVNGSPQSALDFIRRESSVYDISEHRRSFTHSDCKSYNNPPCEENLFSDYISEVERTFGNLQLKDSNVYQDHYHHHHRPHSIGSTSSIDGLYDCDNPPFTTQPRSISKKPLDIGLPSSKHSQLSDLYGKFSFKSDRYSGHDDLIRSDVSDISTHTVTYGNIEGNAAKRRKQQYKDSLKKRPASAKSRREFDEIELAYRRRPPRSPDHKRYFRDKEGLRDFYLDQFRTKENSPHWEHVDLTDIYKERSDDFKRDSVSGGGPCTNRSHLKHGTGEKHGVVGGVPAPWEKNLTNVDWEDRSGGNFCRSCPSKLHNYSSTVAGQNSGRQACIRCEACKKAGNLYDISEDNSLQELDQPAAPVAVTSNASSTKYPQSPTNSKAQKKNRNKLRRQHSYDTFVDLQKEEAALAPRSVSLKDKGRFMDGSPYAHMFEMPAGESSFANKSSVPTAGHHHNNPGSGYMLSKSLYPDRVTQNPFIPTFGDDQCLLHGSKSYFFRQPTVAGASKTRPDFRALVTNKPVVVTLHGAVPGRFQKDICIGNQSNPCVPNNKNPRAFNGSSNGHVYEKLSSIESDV

| SMILES | inhibition at 20 µM [1] [%] | % of [3H]ifenprodil blockade at 100 μM of compound [3] [%] | IC50 [4, 8] [µM] | % of [3H]МК-801 blockade at 100 μM of compound [5] [%] | maximum polymerization rate, % of control at 100 µM [2] [%] | inhibition at 20 µM [6] [%] | inhibition at 20 µM [4] [%] | also measured |
| --- | --- | --- | --- | --- | --- | --- | --- | --- |
| NC12CC3CC(CC(C3)C1)C2 [Amantadine] | 3.2 | 44.6 ± 4.6 | > 20 | 57.2 ± 5.5 |  |  |  | remaining activity at 100 µM ([2]; at 100 μM of compound, 100% = vehicle control (10% DMSO)): 98 ± 16%; inhibition at 20 µM ([4]; 20 μM of compound): 6.9% |
| CC(=O)O[C@H]1C(=O)[C@@]2(C)[C@H]([C@H](OC(=O)c3ccccc3)[C@]3(O)C[C@H](OC(=O)[C@H](O)[C@@H](NC(=O)c4ccccc4)c4ccccc4)C(C)=C1C3(C)C)[C@]1(OC(C)=O)CO[C@@H]1C[C@@H]2O [Paclitaxel] |  |  |  |  |  |  |  | remaining activity at 5 µM ([2]; 5 μM, 100% = vehicle control (10% DMSO)): 487 ± 32% |
| CC12CC3CC(C)(C1)CC(N)(C3)C2.Cl [Memantine, 1-amino-3,5-dimethyladamantane hydrochloride] | 3 | 11.2 ± 1.1 | > 20 | 100 | 89 ± 7 | 1.3 | 13.7 | IC50 ([6]; read-out: IC50 ± SEM, AChE): > 20 µM |
| O=[N+]([O-])c1ccc(OP(=O)(O)Oc2ccc([N+](=O)[O-])cc2)cc1 [BNPP, Bis-4-nitrophenyl phosphate] |  |  |  |  |  |  |  | IC50 ([1]; porcine liver CaE, pH 8.0, 25 °C, read-out: IC50 ± SEM, CaE): 1.8 ± 0.11 µM |
| c1ccc2c(c1)[nH]c1ccccc12 [Carbazole] | 9.4 |  |  |  | 123 ± 12 | 1.8 | 16.1 | IC50 [6]: > 20 µM; IC50 [4]: > 20 µM |
| C[C@H](CCC(=O)O)C[C@H](C)C[C@H](C)C(=O)/C=C(\O)[C@H](C)C[C@H](C)C/C=C/[C@@H](C)[C@@H](O)[C@@H](C)[C@@H](O)C[C@@H]1CC[C@@](C)([C@H]2CC[C@@](C)([C@@H](C)O)O2)O1 [ionomycin] |  |  |  |  |  |  |  | reduction of neuroblastoma cell survival [7]: 36 ± 4% |

— paper PMC5372361 (Scientific Reports, 2017)
